Our source for the EC50 values is patent EP3046573B1, “AMYLIN ANALOGUES” (Zealand Pharma A/S, priority 2013, dated 2015).

As usually defined, the EC50 is the concentration at which the effect is half-maximal.

Like-named read-outs stand apart in the source and are kept apart here. Numbered stars: 1 amine (or outer) side, 2 acyl side, 3 side chain; on linkers, the order of the positions; unused ones are H or OH. Bridge positions count the residues as written; N and C are the ends. Square brackets hold non-standard residues; d marks the D form. Peptide text beside a SMILES is read from it. * marks the point of attachment. C20 diacid = O=C(O)CCCCCCCCCCCCCCCCCCC(=O)*; γGlu = O=C(O)[C@H](CCC(=O)[*:2])N[*:1]; NMeI = CC[C@H](C)[C@H](NC)C(=O)O; Sar = CNCC(=O)O

The target of experiment [1] is T1, human calcitonin receptor (hCTR2) (Homo sapiens, UniProt P30988).
T1 construct: expressed in transfected cells
T1 sequence (P30988 25-474): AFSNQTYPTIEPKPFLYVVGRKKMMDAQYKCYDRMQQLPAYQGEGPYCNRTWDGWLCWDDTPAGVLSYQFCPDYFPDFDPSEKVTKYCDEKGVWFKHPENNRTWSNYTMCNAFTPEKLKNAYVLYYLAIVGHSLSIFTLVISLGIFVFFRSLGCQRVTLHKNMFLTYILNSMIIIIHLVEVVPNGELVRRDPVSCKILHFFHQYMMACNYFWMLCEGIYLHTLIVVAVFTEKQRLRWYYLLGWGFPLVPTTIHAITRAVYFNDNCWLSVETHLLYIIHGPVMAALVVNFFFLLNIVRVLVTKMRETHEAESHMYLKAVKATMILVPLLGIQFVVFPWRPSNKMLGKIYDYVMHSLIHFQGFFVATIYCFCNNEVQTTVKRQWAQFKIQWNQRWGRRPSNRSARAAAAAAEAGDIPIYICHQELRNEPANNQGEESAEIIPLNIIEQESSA
Kind of experiment: hCTR2 assay: induction of cAMP (AlphaScreen cAMP Assay kit) in COS7 cells expressing hCTR2. Format: cell-based. In short, it runs like this: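 COS7 stable hCTR2 clone (RAMP-free); peptide dose-response 15 min 37° C in Tyrode pH 7.4 + 100 µM IBMX + 0.1% casein; lysis 10 min RT; AlphaScreen cAMP; 4PL fit.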
(Bead proximity is the source of the signal in Alpha formats.)

In experiment [2] the target is T2, human amylin receptor 3 (hAMYR3) consisting of hCTR2 co-expressed with human Receptor Activity Modifying Protein 3 (hRAMP3) (Homo sapiens, UniProt O60896+P30988).
T2 construct: expressed in transfected cells
T2 sequence (P30988 25-474): T1 sequence (P30988 25-474)
T2 sequence (O60896 24-148 partner): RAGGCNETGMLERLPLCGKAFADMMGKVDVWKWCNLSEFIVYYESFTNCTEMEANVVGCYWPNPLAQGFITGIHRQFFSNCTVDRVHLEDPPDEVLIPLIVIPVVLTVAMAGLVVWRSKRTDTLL
Kind of experiment: hAMYR3 assay: induction of cAMP (AlphaScreen cAMP Assay kit) in COS7 cells expressing hAMYR3. It is filed as cell-based. An excerpt:
The cell line COS7, originating from African Green Monkey kidney fibroblast cells, was used for establishment of the stable cell lines described below. The COS7 cellular background was used due to it being RAMP naive, and as such it provides the best available system for testing of the monomeric hCTR and different heterodimeric amylin receptor subtypes functionally generated by introduction of the individual RAMPs.
A cell line expressing the human amylin receptor 3 (hAMYR3) was generated in the COS7 cellular background as stable clones. In brief, hCTR2 (GI:4502547) and hRAMP3 (GI:118572586) were amplified by PCR using primers encoding terminal restriction sites for subcloning. The 5'-end primers additionally encoded a near Kozak consensus sequence to ensure efficient translation. The fidelity of the DNA encoding the receptor was confirmed by DNA sequencing. The PCR products encoding the receptor were subcloned into a proprietary tri-cistronic mammalian expression vector with RAMP3, hCTR2 and neomycin (G418) resistance marker. The mammalian expression vector encoding the receptor was transfected into COS7 cells by a standard liposome transfection method. 48 hours post-transfection, cells were seeded for limited dilution cloning and selected with 1 mg/ml G418 in the culture medium. After 3 weeks, surviving colonies of hAMY3R-expressing cells were picked, propagated and tested in the amylin efficacy assay as described in Example 3 below. The functional generation of the amylin receptor phenotype was verified in the efficacy assay by a left-shifted efficacy response to amylin relative to monomeric calcitonin receptor, and one hAMYR3-expressing clone was chosen for compound profiling.
In vitro activity of test peptides at the hCTR2 and hAMYR3 receptors was assessed by measuring the induction of cAMP following stimulation of the receptor by pramlintide or peptides of the invention using the AlphaScreen® cAMP Assay kit from Perkin-Elmer.
Briefly, COS7 cells expressing hCTR2 (see Example 2, above) were seeded at 30-40,000 cells per well in 96-well microtiter plates coated with 0.01 % poly-L-lysine, and grown for 1 day in culture in 100 µl growth medium [DMEM, 10% FCS, Penicillin (100 IU/ml), Streptomycin (100 µg/ml)]. On the day of analysis, growth medium was removed and the cells were washed once with 200 µl Tyrode buffer [Tyrode's Salts (9.6 g/l), 10 mM HEPES, pH 7.4]. Cells were incubated in 100 µl Tyrode buffer containing increasing concentrations of test peptides, 100 µM IBMX and 0.1% casein for 15 min at 37° C. The reaction was stopped by carefully decanting off the compound/buffer medium and replacing it with lysis/detection buffer (80 µl 0.1 % w/v BSA, 5 mM HEPES, 0.3 % v/v Tween-20 in deionized water). After incubation at room temperature for 10 min., the cAMP content of the resulting cell lysate was estimated according to the AlphaScreen® cAMP Assay manufacturer's instructions. EC50 values and relative efficacy values (in %) compared to reference peptide (Pramlintide) were estimated by computer-aided curve fitting using the 4-parameter logistic (4PL) non-linear model.
The in vitro activity results (expressed as EC50 values) for peptides of the invention and for Pramlintide (reference peptide) are summarized in Table 2, below.

[3] abbreviates: cAMP induction in COS7 cells expressing hCTR2, average of a minimum of 3 determinations, read-out: hCTR2 EC50.

As for `CC[C@H](C)[C@@H](C(=O)N[C@@H](CC(C)C)C(=O)N[C@@H](CO)C(=O)N[C@@H](CO)C(=O)N[C@H](C(=O)N[C@@H](CC(N)=O)C(=O)N[C@H](C(=O)NCC(=O)N[C@@H](CO)C(=O)N[C@@H](CC(N)=O)C(=O)N[C@H](C(=O)N[C@@H](CO)C(N)=O)[C@@H](C)O)C(C)C)[C@@H](C)O)N(C)C(=O)[C@H](C)NC(=O)CN(C)C(=O)[C@H](Cc1ccccc1)NC(=O)[C@H](CC(N)=O)NC(=O)[C@H](CC(N)=O)NC(=O)[C@H](CO)NC(=O)[C@H](CO)NC(=O)[C@H](CCCNC(=N)N)NC(=O)[C@H](Cc1c[nH]cn1)NC(=O)[C@H](CC(C)C)NC(=O)[C@H](Cc1ccccc1)NC(=O)[C@H](CCC(=O)O)NC(=O)[C@H](C)NC(=O)[C@H](CC(C)C)NC(=O)[C@H](CCCNC(=N)N)NC(=O)[C@H](CCC(N)=O)NC(=O)[C@@H](NC(=O)[C@H](C)NC(=O)[C@@H]1CSSC[C@H](NC(=O)[C@H](CCCNC(=N)N)NC(=O)CC[C@H](NC(=O)CCCCCCCCCCCCCCCCCCC(=O)O)C(=O)O)C(=O)N[C@@H](CC(N)=O)C(=O)N[C@@H]([C@@H](C)O)C(=O)N[C@@H](C)C(=O)N[C@@H]([C@@H](C)O)C(=O)N1)[C@@H](C)O` [Compound 116, [19CD]-isoGlu-RC()NTATC()ATQRLAEFLHRSSNNF-Gly(Me)-A-Ile(Me)-LSSTNVGSNTS-NH2] ({C20 diacid-γGlu}-RCNTATCATQRLAEFLHRSSNNF[Sar]A[NMeI]LSSTNVGSNTS-NH2; disulfide 2-7), the EC50 in experiment [1] turned out to be 0.93 nM; in experiment [2] it was 1.6 nM.

On to `CC[C@H](C)[C@@H](C(=O)N[C@@H](CC(C)C)C(=O)N[C@@H](CO)C(=O)N[C@@H](CO)C(=O)N[C@H](C(=O)N[C@@H](CC(N)=O)C(=O)N[C@H](C(=O)NCC(=O)N[C@@H](CO)C(=O)N[C@@H](CC(N)=O)C(=O)N[C@H](C(=O)N[C@H](C(N)=O)[C@@H](C)O)[C@@H](C)O)C(C)C)[C@@H](C)O)N(C)C(=O)[C@H](C)NC(=O)CN(C)C(=O)[C@H](Cc1ccccc1)NC(=O)[C@H](CC(N)=O)NC(=O)[C@H](CC(N)=O)NC(=O)[C@H](CO)NC(=O)[C@H](CO)NC(=O)[C@H](CCCNC(=N)N)NC(=O)[C@H](Cc1c[nH]cn1)NC(=O)[C@H](CC(C)C)NC(=O)[C@H](Cc1ccccc1)NC(=O)[C@H](CCC(=O)O)NC(=O)[C@H](C)NC(=O)[C@H](CC(C)C)NC(=O)[C@H](CCCNC(=N)N)NC(=O)[C@H](CCC(N)=O)NC(=O)[C@@H](NC(=O)[C@H](C)NC(=O)[C@@H]1CSSC[C@H](NC(=O)[C@H](CCCNC(=N)N)NC(=O)CC[C@H](NC(=O)CCCCCCCCCCCCCCCCCCC(=O)O)C(=O)O)C(=O)N[C@@H](CC(N)=O)C(=O)N[C@@H]([C@@H](C)O)C(=O)N[C@@H](C)C(=O)N[C@@H]([C@@H](C)O)C(=O)N1)[C@@H](C)O` [Compound 117, [19CD]-isoGlu-RC()NTATC()ATQRLAEFLHRSSNNF-Gly(Me)-A-Ile(Me)-LSSTNVGSNTT-NH2] ({C20 diacid-γGlu}-RCNTATCATQRLAEFLHRSSNNF[Sar]A[NMeI]LSSTNVGSNTT-NH2; disulfide 2-7), for which the EC50 in experiment [1] is 0.47 nM; in experiment [2] it was 8.2 nM.

Take `CC[C@H](C)[C@@H](C(=O)N[C@@H](CC(C)C)C(=O)N[C@@H](CO)C(=O)N[C@@H](CO)C(=O)N[C@H](C(=O)N[C@@H](CCC(=O)O)C(=O)N[C@H](C(=O)NCC(=O)N[C@@H](CO)C(=O)N[C@@H](CCC(=O)O)C(=O)N[C@H](C(=O)N1CCC[C@H]1C(N)=O)[C@@H](C)O)C(C)C)[C@@H](C)O)N(C)C(=O)[C@H](C)NC(=O)CN(C)C(=O)[C@H](Cc1ccccc1)NC(=O)[C@H](CO)NC(=O)[C@H](CO)NC(=O)[C@H](CO)NC(=O)[C@H](CO)NC(=O)[C@H](CCCNC(=N)N)NC(=O)[C@H](Cc1c[nH]cn1)NC(=O)[C@H](CC(C)C)NC(=O)[C@H](Cc1ccccc1)NC(=O)[C@H](CCC(=O)O)NC(=O)[C@H](C)NC(=O)[C@H](CC(C)C)NC(=O)[C@H](CCCNC(=N)N)NC(=O)[C@H](CCC(N)=O)NC(=O)[C@@H](NC(=O)[C@H](C)NC(=O)[C@@H]1CSSC[C@H](NC(=O)[C@H](CCCNC(=N)N)NC(=O)CC[C@H](NC(=O)CCCCCCCCCCCCCCCCCCC(=O)O)C(=O)O)C(=O)N[C@@H](CCC(=O)O)C(=O)N[C@@H]([C@@H](C)O)C(=O)N[C@@H](C)C(=O)N[C@@H]([C@@H](C)O)C(=O)N1)[C@@H](C)O` [Compound 128, [19CD]-isoGlu-RC()ETATC()ATQRLAEFLHRSSSSF-Gly(Me)-A-Ile(Me)-LSSTEVGSETP-NH2] ({C20 diacid-γGlu}-RCETATCATQRLAEFLHRSSSSF[Sar]A[NMeI]LSSTEVGSETP-NH2; disulfide 2-7): the EC50 came out at 0.28 nM in experiment [1] (setting [3]) and 0.45 nM in experiment [2] (cAMP induction in COS7 cells expressing hAMYR3, average of a minimum of 3 determinations, read-out: hAMY R3 EC50).

On to `CC[C@H](C)[C@@H](C(=O)N[C@@H](CC(C)C)C(=O)N[C@@H](CO)C(=O)N[C@@H](CO)C(=O)N[C@H](C(=O)N[C@@H](CCC(=O)O)C(=O)N[C@H](C(=O)NCC(=O)N[C@@H](CO)C(=O)N[C@@H](CCC(=O)O)C(=O)N[C@H](C(=O)N1CCC[C@H]1C(N)=O)[C@@H](C)O)C(C)C)[C@@H](C)O)N(C)C(=O)[C@H](C)NC(=O)CN(C)C(=O)[C@H](Cc1ccccc1)NC(=O)[C@H](CO)NC(=O)[C@H](CO)NC(=O)[C@H](CO)NC(=O)[C@H](CO)NC(=O)[C@H](CCCNC(=N)N)NC(=O)[C@H](Cc1c[nH]cn1)NC(=O)[C@H](CC(C)C)NC(=O)[C@H](Cc1ccccc1)NC(=O)[C@H](CCC(=O)O)NC(=O)[C@H](C)NC(=O)[C@H](CC(C)C)NC(=O)[C@H](CCCNC(=N)N)NC(=O)[C@H](CO)NC(=O)[C@@H](NC(=O)[C@H](C)NC(=O)[C@@H]1CSSC[C@H](NC(=O)[C@H](CCCNC(=N)N)NC(=O)CC[C@H](NC(=O)CCCCCCCCCCCCCCCCCCC(=O)O)C(=O)O)C(=O)N2CCC[C@H]2C(=O)N[C@@H]([C@@H](C)O)C(=O)N[C@@H](C)C(=O)N[C@@H]([C@@H](C)O)C(=O)N1)[C@@H](C)O` [Compound 140, [19CD]-isoGlu-RC()PTATC()ATSRLAEFLHRSSSSF-Gly(Me)-A-Ile(Me)-LSSTEVGSETP-NH2] ({C20 diacid-γGlu}-RCPTATCATSRLAEFLHRSSSSF[Sar]A[NMeI]LSSTEVGSETP-NH2; disulfide 2-7), for which the EC50 was 0.098 nM in experiment [1] (setting [3]) and 0.18 nM in experiment [2].
